Measured values published in US20230391826A1, “COMPOSITIONS AND METHODS FOR TREATING DISEASES” (Sanford Burnham Prebys Medical Discovery Institute, priority 2020, published 2023).
Converted amounts (≈) assume the structure as drawn. “And” between values parts separate entries of the source, which are not always exact repeats. Equal values may be shown once. Read-outs that look alike come from different tables or passages of the source.

Columns and labels:
EphA2 [1] = biological target: T1, EphA2 (Homo sapiens, UniProt P29317); test: Bias factor βlig (pY588 versus pAKT inhibition, PC3 cells, reference ephrinA1-Fc); type: cell-based; set-up: EphA2 is the prevalent endogenously expressed EphA receptor in these cells; endogenous in cells; host or cells: PC3 prostate cancer cells
Description: FIG. 6 illustrates an example where Ligands can bias EphA2 signaling responses. The bias factor βlig was calculated for the indicated ligands using ephrinA1-Fc as the reference ligand. Statistical significance for the comparison of the different ligands with the reference ligand ephrinA1-Fc (βlig=0) was determined by one sample t test; *, P<0.05; **, P<0.01; ***, P<0.001; ****, P<0.0001.
FIG. 14A-14E illustrates an example where distinct factors are responsible for EphA2 biased signaling induced by different ligands. (FIG. 14A) Etop values for EphA2 Y588 phosphorylation, as in FIG. 2C. (FIG. 14B) Etop values for inhibition of AKT phosphorylation. (FIG. 14C) Graph of the ratios of the Etop values for EphA2 Y588 phosphorylation and inhibition of AKT phosphorylation, which are used in the βlig calculation. (FIG. 14D) Graph of the ratios of the EC50 values for EphA2 Y588 phosphorylation and inhibition of AKT phosphorylation, which are used in the βlig calculation. (FIG. 14E) Equation used to calculate the bias factor βlig for each ligand. The terms of the equation are rearranged, compared to equation (1) in the Materials and Methods, to better conform to the graphs in FIG. 14A-14D. **, P<0.01; ***, P<0.001; ****, P<0.0001; ns, not significant for the comparison with ephrinA1-Fc by one-way ANOVA and Dunnett's posthoc test.
The possibility of EphA2 biased signaling by analyzing the dose-response curves obtained with endogenous EphA2 in PC3 cells (FIG. 2A) was explored using approaches developed for GPCRs. This involves using EphA2 Y588 phosphorylation and AKT phosphorylation quantified as a function of ligand concentration to determine and compare the potency (EC50) and efficacy (Etop) for the two responses induced by different ligands. Remarkably, large differences among the ligands in the Etop values for Y588 phosphorylation (FIGS. 2C, 2D and 14A), but not in the Etop values for AKT inhibition (FIGS. 2E and 14B), were observed. In terms of relative efficacies for pY588 and pAKT inhibition, the C-terminally linked dimers and monomeric ligands behave differently from ephrinA1-Fc, while the N-terminally linked dimers and the head-to-tail dimer (8) are similar to ephrinA1-Fc (FIG. 14C). […] Thus, the type of linkage affects EphA2 signaling properties induced by the dimeric peptides.
The determined EC50 and Etop values allowed us to calculate the bias factor βlig for the two different responses induced by the various ligands relative to ephrinA1-Fc as the reference ligand (FIG. 14E). […] Remarkably, the bias originates from different mechanisms that depend on the class of ligands, with the N-terminally linked and head-to-tail dimers modulating relative potencies and the C-terminally-linked dimers and monomers modulating relative efficacies.

EphA2 [2] = biological target: T1, EphA2; test: EphA2 autophosphorylation on tyrosine 588 in PC3 cells (immunoblot dose-response); type: cell-based; set-up: EphA2 is the prevalent endogenously expressed EphA receptor in these cells; endogenous in cells; host or cells: PC3 prostate cancer cells
Description: (§1) (FIG. 2A) Dose-response curves for EphA2 autophosphorylation on tyrosine 588 (pY588; purple) and for downstream inhibition of AKT phosphorylation (magenta). PC3 cells were treated for 15 min with different concentrations of the indicated peptides. […] The graphs show quantifications from multiple blots (averages ±SE; the number of experiments used to generate each curve is shown in Table 3). […] (FIG. 2B) Examples of immunoblots of lysates from PC3 cells treated with the indicated concentrations of representative ligands. […] A white vertical line indicates removal of irrelevant lanes. […] The bars show averages ±SE, and the individual measurements are shown as black dots. […] Plots of Etop versus EC50 for pY588 in FIG. 2D and for pAKT inh in FIG. 2E. Averages ±SE are shown for the peptides and ephrinA1.
To examine the agonistic properties of the different dimeric peptide ligands, EphA2 autophosphorylation on tyrosine 588 (Y588) was measured, which is indicative of receptor activation and mediates binding of SH2 domain-containing proteins that link EphA2 to various downstream signaling pathways (FIG. 7). For these experiments, PC3 prostate cancer cells were stimulated with the dimeric peptides because EphA2 is the prevalent endogenously expressed EphA receptor in these cells, allowing comparisons with ephrins.

[3] = biological target: T2, EphA2 extracellular domain fused to Fc (EphA2-Fc) (Homo sapiens, UniProt P29317); test: ELISA: inhibition of ephrinA5-AP binding to immobilized EphA2-Fc; conditions: Table 3; inhibition of EphA2-ephrinA5 interaction; averages ± SD; read-out: ICsa (nM) by ELISA
T2 construct: immobilized EphA2 extracellular domain fused to the Fc portion of an antibody (EphA2-Fc)
Text: FIG. 1A-1C illustrates an example of Potency and selectivity of EphA2-targeting dimeric peptides. (FIG. 1A) ELISAs comparing the ability of the peptides to inhibit binding of ephrin-A5 fused to alkaline phosphatase (ephrinA5-AP) to the immobilized EphA2 extracellular domain fused to the Fc portion of an antibody (EphA2-Fc). The graphs show averages ±SD from triplicate measurements from a representative experiment. IC50 values calculated from the fitted curves in each experiment are shown. Averages of IC50 values obtained from multiple experiments are shown in panel FIG. 1B and Table 3. The 10 nM peptide concentration is outlined in red. (FIG. 1B) Plot of the average IC50 values (listed in Table 3) for different ligands. […] (FIG. 1C) EphrinA5-AP binding to EphA receptors and ephrinB2-AP binding to EphB receptors in the presence of dimeric peptides representing each of the three configurations. Values are normalized to ephrin binding without peptide. The graphs show averages and SDs from triplicate measurements (with each measurement shown as a dot).

AKT = test: Inhibition of AKT phosphorylation on S473 in PC3 cells; type: cell-based
Description: as §1

[4] = Peptide solubility in PBS/H2O/DMSO; type: physicochemical
Description: Peptide identity and purity are documented by mass spectrometry and high-performance liquid chromatography (HPLC). The peptide solubility values are determined. Concentrated peptide stocks are prepared in DMSO or H2O and stored frozen at −80° C.

T1 sequence (P29317 24-976): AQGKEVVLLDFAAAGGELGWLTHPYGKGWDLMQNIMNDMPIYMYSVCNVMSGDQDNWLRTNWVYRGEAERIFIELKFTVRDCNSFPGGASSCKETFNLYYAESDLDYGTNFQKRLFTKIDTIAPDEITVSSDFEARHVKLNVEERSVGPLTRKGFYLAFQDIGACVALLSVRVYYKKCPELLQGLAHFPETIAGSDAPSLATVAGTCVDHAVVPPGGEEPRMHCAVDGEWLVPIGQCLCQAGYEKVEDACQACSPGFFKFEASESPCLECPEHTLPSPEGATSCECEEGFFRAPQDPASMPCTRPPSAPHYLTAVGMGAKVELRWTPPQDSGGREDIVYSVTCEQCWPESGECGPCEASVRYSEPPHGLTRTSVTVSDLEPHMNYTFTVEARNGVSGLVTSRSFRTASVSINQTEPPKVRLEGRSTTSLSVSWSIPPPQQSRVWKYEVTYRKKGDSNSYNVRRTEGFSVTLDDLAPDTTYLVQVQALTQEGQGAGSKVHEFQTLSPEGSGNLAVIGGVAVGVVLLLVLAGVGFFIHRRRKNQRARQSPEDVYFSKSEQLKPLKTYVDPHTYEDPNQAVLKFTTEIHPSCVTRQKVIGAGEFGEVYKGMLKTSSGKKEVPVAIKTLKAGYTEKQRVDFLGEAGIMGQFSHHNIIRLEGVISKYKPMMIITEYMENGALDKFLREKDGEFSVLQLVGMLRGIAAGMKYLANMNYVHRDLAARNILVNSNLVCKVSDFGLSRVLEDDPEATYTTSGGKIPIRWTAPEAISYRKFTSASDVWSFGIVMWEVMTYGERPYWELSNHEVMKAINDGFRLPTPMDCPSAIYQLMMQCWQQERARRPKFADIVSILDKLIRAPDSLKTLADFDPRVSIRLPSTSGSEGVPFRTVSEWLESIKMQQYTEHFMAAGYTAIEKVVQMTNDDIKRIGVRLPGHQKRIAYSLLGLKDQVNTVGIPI
T2 sequence (P29317 24-537 limits assumed): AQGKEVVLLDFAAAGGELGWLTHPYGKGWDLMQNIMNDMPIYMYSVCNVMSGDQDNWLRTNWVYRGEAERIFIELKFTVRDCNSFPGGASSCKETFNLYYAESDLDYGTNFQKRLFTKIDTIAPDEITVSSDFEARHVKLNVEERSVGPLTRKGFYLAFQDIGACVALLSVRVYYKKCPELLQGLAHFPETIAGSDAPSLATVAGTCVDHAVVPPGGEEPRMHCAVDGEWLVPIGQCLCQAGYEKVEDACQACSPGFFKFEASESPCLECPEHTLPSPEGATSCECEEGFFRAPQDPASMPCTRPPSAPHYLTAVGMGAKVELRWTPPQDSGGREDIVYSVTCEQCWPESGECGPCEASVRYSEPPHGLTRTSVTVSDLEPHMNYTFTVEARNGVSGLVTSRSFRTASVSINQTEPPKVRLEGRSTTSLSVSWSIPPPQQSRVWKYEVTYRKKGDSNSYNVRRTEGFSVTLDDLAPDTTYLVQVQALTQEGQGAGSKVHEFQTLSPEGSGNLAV

Q: Which “βu (bias factor βlig)” value (EphA2 [1]; Table 3, reference ligand ephrinA1-Fc (βlig=0)) does the source give for `CC(C)C[C@H](NC(=O)[C@H](Cc1c[nH]c2ccccc12)NC(=O)[C@H](C)NC(=O)CNC(=O)[C@@H](N)CSSC[C@H](N)C(=O)NCC(=O)N[C@@H](C)C(=O)N[C@@H](Cc1c[nH]c2ccccc12)C(=O)N[C@@H](CC(C)C)C(=O)N[C@@H](C)C(=O)N[C@@H](Cc1ccc(O)cc1)C(=O)N1CCC[C@H]1C(=O)N[C@@H](CC(=O)O)C(=O)N[C@@H](CO)C(=O)N[C@H](C(=O)N1CCC[C@H]1C(=O)N[C@@H](Cc1ccc(O)cc1)C(=O)N[C@@H](CCCNC(=N)N)C(=O)N1CCC[C@H]1C(=O)N[C@@H](CCCCN)C(=O)O)C(C)C)C(=O)N[C@@H](C)C(=O)N[C@@H](Cc1ccc(O)cc1)C(=O)N1CCC[C@H]1C(=O)N[C@@H](CC(=O)O)C(=O)N[C@@H](CO)C(=O)N[C@H](C(=O)N1CCC[C@H]1C(=O)N[C@@H](Cc1ccc(O)cc1)C(=O)N[C@@H](CCCNC(=N)N)C(=O)N1CCC[C@H]1C(=O)N[C@@H](CCCCN)C(=O)O)C(C)C` [compound 5, CGA-WLA-YRPK dimer (N-ter)] here?
A: 066 ± 0.12

Q: And the Blig (EphA2 [1]; bias factor, reference ligand ephrinA1Fc)?
A: 0.81 ± 0.09

Q: What about the “Etop pY588” value (EphA2 [2]; Table 3, 15 min, saturating ligand, pY588/EphA2 normalized to ephrinA1-Fc) of the same molecule?
A: 0.87 ± 0.04

Q: And the “Emax PY588” value (EphA2 [2]; ephrinA1Fc = 1.00)?
A: 0.78 ± 0.025

Q: What about the EC50 (EphA2 [2]; read-out: EC50 PY588) of the same molecule?
A: 0.53 ± 0.07 nM

Q: What about the IC50 [3] of the same molecule?
A: 0.65 nM and 0.66 nM

Q: And the IC50 (AKT; PC3 cells)?
A: 0.068 ± 0.011 nM

Q: What about the EC50 (AKT; Table 3, PC3 cells treated for 15 min, read-out: ECsa pAKT inhlb.) of the same molecule?
A: 0.09 ± 0.02 nM

Q: And the “Etop pAKT inhlb” value (AKT; Table 3, PC3 cells, 15 min, 1-pAKT/AKT normalized to cells not treated with ligand)?
A: 1.0 ± 0.04

Q: And the solubility ([4]; DMSO, third of PBS/H2O/DMSO, read-out: Solubility in DMSO)?
A: 15000 µg/mL (≈ 4120 µM)

Q: What about the solubility ([4]; PBS, Table 4, first of PBS/H20/DMSO, read-out: Solubility in PBS) of the same molecule?
A: 5000 µg/mL (≈ 1370 µM)

Q: And the solubility ([4]; PBS, first of PBS/H2O/DMSO, read-out: Solubility in PBS)?
A: 5000 µg/mL (≈ 1370 µM)

Q: And the solubility ([4]; water, Table 4, second of PBS/H20/DMSO, read-out: Solubility in H20)?
A: 5000 µg/mL (≈ 1370 µM)

Q: What about the solubility ([4]; water, second of PBS/H2O/DMSO, read-out: Solubility in H2O) of the same molecule?
A: 5000 µg/mL (≈ 1370 µM)
